Results taken from US20110251240A1, “Dosing Regimen of Flavopiridol for Treating Cancer” (OHIO STATE UNIVERSITY RESEARCH FOUNDATION, priority 2005, published 2011).
Entries after “also recorded” stand apart in the source; their conditions may differ. Structures can show the parent of a compound that is named as a salt. Where two headings read alike, the source gives them in different places.

Columns and labels:
[1] = Example 1 plasma pharmacokinetics (LC/MS); conditions: for half-life: plasma, intravenous
Source text: (§1) Subjects: All patients provided written informed consent. Patients had CLL or small lymphocytic lymphoma and required therapy according to the NCI criteria. […] Enrollment requirements included: age older than 17 years, symptomatic by the NCI 96 criteria, platelet count greater than 49×10^9/L, ECOG performance status of 2 or less, no active infection or inflammatory bowel disease, and not pregnant. The serum creatinine and total bilirubin levels were required to be no more than 2.0 times the normal value. Design, Treatment and Dose Modifications: This study utilized a modified phase I design, enrolling three to six patients per level until two of the first six patients experienced dose limiting toxicity. Expansion of the dose level below this occurred to a minimum of six patients to assure safety for phase II investigation. Flavopiridol was administered via a central venous catheter. The schedule of flavopiridol included receiving 50% of the dose as a 30-minute bolus infusion and the remaining 50% dose as a 4-hour infusion every week for four consecutive weeks, followed by two weeks off. The total dose administered in level 1 was 60 mg/m^2 (i.e. 30 mg/m^2 as 30 minute bolus followed by 30 mg/m^2 4-hour continuous infusion). In level 2 the dose was 80 mg/m^2 (i.e. 40 mg/m^2 bolus and 40 mg/m^2 infusion). All patients received allopurinol 300 mg/day beginning one day prior to initiation of treatment and continued during therapy. All patients received prophylactic anti-viral and Pneumocystis carinii pneumonia therapy as described previously during and for six months following completion of therapy. […] Aggressive management of hyperkalemia including kayexalate therapy, insulin and glucose therapy, and calcium therapy was employed according to an established protocol. The ability to perform bedside emergent dialysis was assured. Prophylactic rasburicase was utilized in patients with bulky lymphadenopathy or high lymphocyte counts. Following five treatments with flavopiridol, treatment was transitioned to outpatient status with two hours of hydration before and through therapy with abbreviated laboratory monitoring. Patients could discontinue therapy for stable disease without improvement after two cycles (eight treatments). Otherwise, patients continued therapy in the absence of progression or toxicity that prohibited further treatment for a maximum of six cycles (24 treatments) of flavopiridol. Patients were evaluated for response after two, four, and six cycles of therapy. Dose Limiting Toxicity: Dose limiting toxicity was defined as non-hematologic toxicity of grade 3 or greater severity (excluding transient liver function abnormalities, transient non-life-threatening electrolyte abnormalities, fatigue, or diarrhea that resolve within four days), or in some case grade 2 toxicity (i.e. irreversible renal, chronic pulmonary, neurologic, or cardiac toxicity). Hematologic toxicity was dose limiting only if grade 4 thrombocytopenia or neutropenia persisted for seven days or greater. The NCI Common Toxicity Criteria was used to grade non-hematologic toxicity and the NCI 96 CLL criteria for hematologic toxicity. See, Cheson B. D., et al. “National Cancer Institute-sponsored Working Group guidelines for chronic lymphocytic leukemia: revised guidelines for diagnosis and treatment,” Blood 1996; 87:4990-7. Assessment of Response: Criteria for response and progression utilized the Revised NCI-sponsored Working Group Guidelines as mentioned above. As specified by these guidelines, a response had to be maintained for a period of two months.

[2] = Example 2 clinical trial: plasma Cmax; type: in vivo; conditions: human, intravenous
Source text: (§2) Fifty-six patients were enrolled in this clinical trial with the median prior therapies being 4 and the majority being fludarabine-refractory. […] Cohort 1 was expanded with aggressive TLS prophylaxis. Of the 20 patients in cohort 1, 8 (40%) attained a partial response (PR) with median response duration exceeding 12 months. […] Cohort 3 and 4 did this (Table 4) with acceptable toxicity. Cohort 3 included 19 patients of whom 14 were escalated with the 5th dose. […] Ten (53%) of patients attained a partial response. […] TLS risk factors were examined for the first treatment dose in cohorts 1-3. WBC of ≧200×10^9/L were more frequently associated with TLS (5 of 8 pts) versus those with WBC<200×10^9/L (1 of 34 pts). Cohort 4 excludes pts with WBC≧200×10^9/L and currently includes 14 pts. Safety has been acceptable with only 1 case of TLS. Response assessment for cohort 4 is underway, with anti-tumor activity appearing similar to that observed in cohort 3.

[3] = test system: patients with CLL or small lymphocytic lymphoma; assay: Example 1 phase I trial: toxicity; type: in vivo
Experimental: Subjects: All patients provided written informed consent. […] Flavopiridol was administered via a central venous catheter. […] The ability to perform bedside emergent dialysis was assured.
Toxicity Observed with Flavopiridol: Six patients were initially treated in dose level 1 (30 mg/m^2 bolus followed by 30 mg/m^2 4-hour infusion), with one patient having dose limiting toxicity (neutropenic fever). Dose escalation proceeded to dose level 2, with three patients being treated. […] On autopsy, extensive apoptosis/necrosis of diffuse intra-abdominal lymphadenopathy was found. No additional patients were treated at this dose, but patient one of dose level 2, who previously had not experienced TLS at the 80 mg/m^2/dose, developed this toxicity on day 1 of cycle 2 while receiving a 60 mg/m^2 dose. All treatment was put on hold and an aggressive monitoring mechanism was put into place. Fourteen additional patients were treated at the level 1 dose utilizing this protocol. While biochemical evidence of TLS was present in most patients receiving therapy, only one developed significant TLS that required temporary dialysis for medically uncontrollable hyperkalemia on day 1 of therapy. While grade 1 (n=11) or 2 (n=6) diarrhea occurred in the majority of patients treated at the level 1 dose, this was generally short-lived. Similarly, transient grade 1 (n=13) or grade 2 (n=6) fatigue was observed.

patients with CLL [4] = assay: Example 2 clinical trial: response; type: in vivo, human
Source text: as §2

[5] = test system: patients with CLL or small lymphocytic lymphoma; assay: Example 1 phase I trial: response (NCI 96 criteria); type: in vivo, human
Source text: as §1

RNA polymerase II = assay: Example 1 cellular pharmacodynamics: RNA polymerase II serine-5 phosphorylation in primary CLL cells during treatment; type: in vivo, human; conditions: eight patients examined
Source text: (§3) Subjects: All patients provided written informed consent. Patients had CLL or small lymphocytic lymphoma and required therapy according to the NCI criteria. […] Enrollment requirements included: age older than 17 years, symptomatic by the NCI 96 criteria, platelet count greater than 49×10^9/L, ECOG performance status of 2 or less, no active infection or inflammatory bowel disease, and not pregnant. The serum creatinine and total bilirubin levels were required to be no more than 2.0 times the normal value. Design, Treatment and Dose Modifications: This study utilized a modified phase I design, enrolling three to six patients per level until two of the first six patients experienced dose limiting toxicity. Expansion of the dose level below this occurred to a minimum of six patients to assure safety for phase II investigation. Flavopiridol was administered via a central venous catheter. The schedule of flavopiridol included receiving 50% of the dose as a 30-minute bolus infusion and the remaining 50% dose as a 4-hour infusion every week for four consecutive weeks, followed by two weeks off. The total dose administered in level 1 was 60 mg/m^2 (i.e. 30 mg/m^2 as 30 minute bolus followed by 30 mg/m^2 4-hour continuous infusion). In level 2 the dose was 80 mg/m^2 (i.e. 40 mg/m^2 bolus and 40 mg/m^2 infusion). […] Patients were evaluated for response after two, four, and six cycles of therapy. […]

Mcl-1 = assay: Example 1 cellular pharmacodynamics: immunoblot of Mcl-1 in primary CLL cells during treatment; type: in vivo, human
Source text: as §3

[6] = type: in vitro ADME; conditions: bovine
Source text: However, despite the promising pre-clinical results with flavopiridol in CLL and virtually all hematologic malignancies, the efficacy of flavopiridol in treating CLL in all of the clinical studies reported thus far are disappointing. […] See for example, Byrd J. C. et al., “Treatment of Relapsed Chronic Lymphocytic Leukemia by 72-hour Continuous Infusion or 1-Hour Bolus Infusion of Flavopiridol: Results from Cancer and Leukemia Group B Study 19805,” Clin. Cancer Res. 2005; 11(11) Jun. 1, 2005, 4176-4181, and references cited therein. The schedules selected in these unsuccessful trials were modeled after in vitro studies performed in fetal bovine serum-based media.
Based upon the poor clinical results in all the trials reported to date with flavopiridol, the present invention contemplated the possibility that differential protein binding could exist between these two culture media. […] Additionally, the 1-hour LC50 concentration for CLL cells in human serum was generally not obtained in the solid tumor phase I trial exploring this schedule. Thus, the prolonged continuous infusion or bolus dosing schedules previously explored in CLL and NHL may not achieve pharmacologically effective drug concentrations of flavopiridol, thereby explaining the absence of activity in the continuous infusion schedules and the marginal activity with the IV bolus schedule. […]

relapsed CLL = conditions: cited from earlier work; for clinical activity / response: CLL, hydrochloride
patients with CLL [7] = conditions: human, in vivo
Source text: as §2

CLL cells = assay: cells; type: cell-based; conditions: Homo sapiens, CLL cell
Source text: Based upon the poor clinical results in all the trials reported to date with flavopiridol, the present invention contemplated the possibility that differential protein binding could exist between these two culture media. […] Additionally, the 1-hour LC50 concentration for CLL cells in human serum was generally not obtained in the solid tumor phase I trial exploring this schedule. Thus, the prolonged continuous infusion or bolus dosing schedules previously explored in CLL and NHL may not achieve pharmacologically effective drug concentrations of flavopiridol, thereby explaining the absence of activity in the continuous infusion schedules and the marginal activity with the IV bolus schedule. Given the novel mechanism of action of flavopiridol, as well as its ability to induce apoptosis independent of p53 dysfunction and modulate critical anti-apoptotic proteins such as Mcl-1 in vitro, and utilizing pharmacokinetic modeling a new dosing regimen in accordance with this invention was developed.

[8] = cohort 1, 30 mg/m^2 + 30 mg/m^2
[9] = cohort 3 at the escalated doses (30 mg/m^2 + 50 mg/m^2)
[10] = 23 CLL patients, 30-min bolus + 4-h infusion
[11] = Cohort 1, 30 mg/m^2 + 30 mg/m^2, 20 pts
[12] = Cohort 2, 40 mg/m^2 + 40 mg/m^2, 3 pts

CN1CCC(c2c(O)cc(O)c3c(=O)cc(-c4ccccc4Cl)oc23)[C@H](O)C1.Cl (stereo partly drawn) [Flavopiridol, (cis-5,7-dihydroxy-2-(2-chlorophenyl)-8-[4-(3-hydroxy-1-methyl)-piperidinyl]-1-benzopyran-4-one) hydrochloride]
CL ([1]; 30 + 30 mg/m^2 (n = 20), Mean ± S.D.): 14.5 ± 6.5 L/hr/m^2
inter-patient variability of Cmax ([1]; human, in vivo): two to three-fold
Cmax ([1]; human, in vivo, 80 mg/m^2): 4400 nM
half-life ([1]; human, t1/2, 30 + 30 mg/m^2 (n = 20), Mean ± S.D.): 14 ± 10.2 h
half-life ([1]; human, terminal half-life, mean±S.D., after the end of the 4-hour CIVI): 14 ± 10.2 h
half-life ([1]; human, terminal half-life, range, after the end of the 4-hour CIVI): 1.1 to 42.5 h
Cmax at 0.5 hr [2, 8]: 2080 nM
Cmax at 4.5 hr [2, 8]: 960 nM
Cmax at 0.5 hr [2, 9]: 1950 nM
Cmax at 4.5 hr [2, 9]: 1540 nM
toxicity in patient three at dose level 2 ([3]; 40 mg/m^2 bolus + 40 mg/m^2 infusion, day 1): TLS complicated by uncontrollable hyperkalemia and subsequent fatal asystole
Number of patients with AST Elevation Grade 5 [3, 10]: 0
Number of patients with Anemia Grade 5 [3, 10]: 0
Number of patients with Arthralgias Grade 5 [3, 10]: 0
Number of patients with Diarrhea Grade 5 [3, 10]: 0
Number of patients with Dyspnea Grade 5 [3, 10]: 0
Number of patients with Edema Grade 5 [3, 10]: 0
Number of patients with Fatigue Grade 5 [3, 10]: 0
Number of patients with Hypokalemia Grade 5 [3, 10]: 0
Number of patients with Infection Grade 3 [3, 10]: 5
Number of patients with Infection Grade 4 [3, 10]: 0
Number of patients with Infection Grade 5 [3, 10]: 0
Number of patients with Neutropenia Grade 5 [3, 10]: 0
Number of patients with Syncope Grade 5 [3, 10]: 0
Number of patients with Thrombocytopenia Grade 5 [3, 10]: 0
Number of patients with Tumor Lysis Syndrome Grade 5 [3, 10]: 1
Percentage of patients with Infection Grade 3 [3, 10]: (22%)
Percentage of patients with Tumor Lysis Syndrome Grade 5 [3, 10]: 4%
patients with grade 1 diarrhea ([3]; human, in vivo): 11
patients with grade 2 diarrhea ([3]; human, in vivo): 6
patients with transient grade 1 fatigue ([3]; human, in vivo): 13
patients with transient grade 2 fatigue ([3]; human, in vivo): 6
patients developing significant TLS that required temporary dialysis ([3]; in vivo): one
Response Rate (partial response), number of patients (patients with CLL [4]; [11]): 8
Response Rate (partial response), percentage (patients with CLL [4]; [11]): 40%
Response Rate, number of patients (patients with CLL [4]; [12]): 1
Response Rate, percentage (patients with CLL [4]; [12]): 33%
Response Rate (partial response), percentage (patients with CLL [4]; Cohort 3, 30 + 30 mg/m^2 dose 1-4 then 30 + 50 mg/m^2, 19 pts): 53%
median response duration (patients with CLL [4]; cohort 1 responders): exceeding 12 months
tumor cytoreduction with dose escalation (patients with CLL [4]; cohort 3, 14 patients escalated with the 5th dose): Increased tumor cytoreduction was observed in a majority of patients
duration of partial response in patient two at dose level 2 ([5]; 40 mg/m^2 bolus + 40 mg/m^2 infusion): > 13 month
patients attaining a partial response (NCI 96 criteria), number ([5]; among the 23 patients enrolled): ten
patients attaining a partial response (NCI 96 criteria), percentage ([5]; among the 23 patients enrolled): 43%
responding patients relapsed ([5]; of ten responders, at eight and sixteen months): two
responding patients remaining in continuous remission ([5]; of ten responders, at five to 14+ months): Eight
patients experiencing a 50% or greater reduction in lymphadenopathy ([5]; of the nine patients with measurable lymphadenopathy, by day 8 of cycle 1): eight
change in serine-5 phosphorylation of RNA polymerase II (RNA polymerase II): no change
patients with significant modulation of Mcl-1 (Mcl-1; of the five non-responding patients examined): None
patients with decreased expression of Mcl-1 with treatment (Mcl-1; of three responding patients examined): two
free drug level [6]: 63-100%
response rate (relapsed CLL; 1-hour bolus, relapsed CLL): 11%
clinical activity / response (relapsed CLL; 24-hour infusion): No activity; also recorded: no patients with CLL responded
clinical activity / response (relapsed CLL; 72-hour continuous infusion): No activity; also recorded: no patients with CLL responded
cases of TLS (patients with CLL [7]): 1

CN1CC[C@H](c2c(O)cc(O)c3c(=O)cc(-c4ccccc4Cl)oc23)[C@H](O)C1 [Flavopiridol, (cis-5,7-dihydroxy-2-(2-chlorophenyl)-8-[4-(3-hydroxy-1-methyl)-piperidinyl]-1-benzopyran-4-one) hydrochloride]
CC50 (CLL cells; 1 h, read-out: 1-hour LC50 required to induce apoptosis in CLL cells, 1-hour exposure, fetal calf serum): 670 nM
CC50 (CLL cells; 1 h, read-out: 1-hour LC50 required to induce apoptosis in CLL cells, 1-hour exposure, human serum): 3510 nM
CC50 (CLL cells; 24 h, read-out: 24-hour LC50 required to induce apoptosis in CLL cells, 24-hour exposure, fetal calf serum): 120 nM
CC50 (CLL cells; 24 h, read-out: 24-hour LC50 required to induce apoptosis in CLL cells, 24-hour exposure, human serum): 470 nM
